From patent US20240342138A1, “MICROTUBULE TARGETING AGENTS” (BPGbio, Inc., priority 2023, published 2024)

Legend:
A549 tumors = assay: Lung adenocarcinoma xenograft model; assay type: in vivo, nude mice; conditions: for Highest TGI (%): Day 7
Method: FIG. 13A-13B show efficacy of Compound 1 in a lung adenocarcinoma xenograft model (A549). A) In vitro potency of Compound 1 in A549 cells as evaluated by ATPlite 1Step™ Perkin Elmer (performed by NTRC Oncolines). B) A549 cells (5×10^6) were implanted subcutaneously in athymic female nude mice and tumors were allowed to grow to a volume of ˜112 mm^3 followed by randomization of animals into three (3) groups (vehicle control, 75 mg/kg, 150 mg/kg Compound 1) with 12 animals per group. A Compound 1 solid dispersion was prepared prior to each dosing and administered by oral gavage two times a day (BID). Mean tumor volume of each group over time and the growth of tumor in each individual animal was graphed. For each individual animal of […] group TGI (%) was calculated based on the tumor growth inhibition of individual tumor at each given day of the study compared to the average of the group for that given day of the study. P-values were calculated using two-tailed distribution and two-sample equal variance (homoscedastic) for each group treated with Compound 1 for each given day of the study in reference to vehicle control. NS p>0.05; *p≤0.05; **p≤0.01; ***p p≤0.001; **** p≤0.0001.
(§1) Anti-tumor efficacy of Compound 1 was evaluated against three (3) different preclinical oncology mice models of colorectal cancer, prostate cancer, and lung adenocarcinoma (see Table 5 below). For this purpose, an oral formulation of Compound 1 was used.
A549 is a human lung adenocarcinoma cell line isolated from the lung tissue of their origin. […] A549 cells were implanted subcutaneously in nude mice and tumors were allowed to grow to an average volume of 112 mm^3 followed by randomization into three (3) groups consisting of vehicle control, 75 mg/kg and 150 mg/kg Compound 1 (12 animals per group). A Compound 1 solid dispersion was administered by oral gavage two times a day (BID). All animals remained in the study until Day 28 except one animal from Group 3 (Animal #29), which exited the study on Day 11 due to more than 20% body weight loss. This animal was excluded from all analysis. Data from Day 14-18 were excluded from the analysis due to inconsistencies in data collection methods.

P-gp = P-gp (Homo sapiens, UniProt P08183); assay: P-gp substrate status; assay type: in vitro ADME
[1] = Blood brain barrier permeability (PVDF membrane coated with porcine brain polar lipid extract); assay type: in vitro ADME
Method: Preparation of Donor Solution a) 0.2 mM working solution was prepared by diluting 10 mM stock solution with DMSO. b) 10 μM donor solution (5% DMSO) was prepared by diluting 20 μL of working solution with 380 μL PBS. 2) 150 μL of 10 μM donor solutions to each well of the donor plate, whose PVDF membrane was precoated with 5 μL of 1% brain polar lipid extract (Porcine)/dodecane mixture. Duplicates were prepared. 3) 300 μL of PBS was added to each well of the PTFE acceptor plate. 4) The donor plate and acceptor plate were combined together and incubated for 4h at room temperature with shaking at 300 rpm. 5) Preparation of TO sample: 20 μL donor solution was transferred to new well followed by the addition of 250 μL PBS (DF: 13.5), 130 μL ACN (containing internal standard) as TO sample. 6) Preparation of acceptor sample: The plate was removed from incubator. 270 μL solution was transferred from each acceptor well and mixed with 130 μL ACN (containing internal standard) as acceptor sample. 7) Preparation of donor sample: […] was transferred from each donor well and mixed with 250 μL PBS (DF: 13.5), 130 μL ACN (containing internal standard) as donor sample. 8) Acceptor samples and donor samples were all analyzed by LC/MS/MS.

COLO205 tumors = assay: Colorectal cancer xenograft model; assay type: in vivo, nude mice
Method: FIG. 11A-11E show the efficacy of Compound 1 in a colorectal cancer xenograft model (COLO205). A) In vitro potency of Compound 1 in COLO205 cells as evaluated by ATPlite 1Step™ Perkin Elmer (performed by NTRC Oncolines). B) COLO205 cells were implanted subcutaneously in nude mice and tumors were allowed to grow to a volume of 210 mm3 followed by randomization of animals into three (3) groups (vehicle control, 75 mg/kg, 150 mg/kg Compound 1) with 12 animals per group. A Compound 1 solid dispersion was prepared prior to each dosing and administered by oral gavage two times a day (BID). Mean tumor volume of each group over time and the growth of tumor in each individual animal was graphed. For each individual animal of […] group TGI (%) was calculated based on the tumor growth inhibition of individual tumor at each given day of the study compared to the average of the group for that given day of the study. P-values were calculated using two-tailed distribution and two-sample equal variance (homoscedastic) for each group treated with Compound 1 for each given day of the study in reference to vehicle control. NS p>0.05; *p≤0.05; **p≤0.01; ***p p≤0.001; **** p≤0.0001. C) Plasma and tumor tissues from vehicle (n=11), 75 mg/kg (n=12), and 150 mg/kg (n=11) groups were harvested at the end of the study. The concentration of Compound 1 in the plasma or tumor tissue was plotted as a column plot (Average t SEM) or Scatter Plot with Median. D) Tumor tissues from vehicle (n=11), 75 mg/kg (n=12) and 150 mg/kg (n=11) groups were harvested at the end of the study when each animal was sacrificed. The level of two biomarkers, pHH3 and CCNB1 in each tissue was measured and graphed as the Min-to-Max plot and scatter plot of the level of each biomarker. The line in the scatter plot indicates the group mean. E) Body weight of each individual animal was measured on each day of the study and graphed using Graphpad Prism.
as §1
COLO205 is a colorectal adenocarcinoma (Dukes' Type D) cell line of epithelial origin isolated from human colon. COLO205 is a model that is well validated in the cancer field for in vivo efficacy evaluation of oncology therapeutics. Nude mice were implanted subcutaneously with COLO205 cells and tumors were grown to an average tumor volume of 113 mm^3 followed by randomization into three (3) groups consisting of vehicle control, 75 mg/kg and 150 mg/kg Compound 1 (12 animals per group). A Compound 1 solid dispersion was administered by oral gavage two times a day (BID). Originally, the study was planned for 28 days of dosing; however, several animals left the study after 17 days of dosing due to tumor size reaching the limit of 2000 mm^3. Therefore, only the data for the first 17 days of dosing were used for the analysis. Additionally, one animal from vehicle group and one animal from 150 mg/kg group left the study prior to day 17 and were therefore removed from the analysis. The percentage of tumor growth inhibition (TGI %) was calculated for each individual animal.

Chain of P-gp (P08183 whole entry): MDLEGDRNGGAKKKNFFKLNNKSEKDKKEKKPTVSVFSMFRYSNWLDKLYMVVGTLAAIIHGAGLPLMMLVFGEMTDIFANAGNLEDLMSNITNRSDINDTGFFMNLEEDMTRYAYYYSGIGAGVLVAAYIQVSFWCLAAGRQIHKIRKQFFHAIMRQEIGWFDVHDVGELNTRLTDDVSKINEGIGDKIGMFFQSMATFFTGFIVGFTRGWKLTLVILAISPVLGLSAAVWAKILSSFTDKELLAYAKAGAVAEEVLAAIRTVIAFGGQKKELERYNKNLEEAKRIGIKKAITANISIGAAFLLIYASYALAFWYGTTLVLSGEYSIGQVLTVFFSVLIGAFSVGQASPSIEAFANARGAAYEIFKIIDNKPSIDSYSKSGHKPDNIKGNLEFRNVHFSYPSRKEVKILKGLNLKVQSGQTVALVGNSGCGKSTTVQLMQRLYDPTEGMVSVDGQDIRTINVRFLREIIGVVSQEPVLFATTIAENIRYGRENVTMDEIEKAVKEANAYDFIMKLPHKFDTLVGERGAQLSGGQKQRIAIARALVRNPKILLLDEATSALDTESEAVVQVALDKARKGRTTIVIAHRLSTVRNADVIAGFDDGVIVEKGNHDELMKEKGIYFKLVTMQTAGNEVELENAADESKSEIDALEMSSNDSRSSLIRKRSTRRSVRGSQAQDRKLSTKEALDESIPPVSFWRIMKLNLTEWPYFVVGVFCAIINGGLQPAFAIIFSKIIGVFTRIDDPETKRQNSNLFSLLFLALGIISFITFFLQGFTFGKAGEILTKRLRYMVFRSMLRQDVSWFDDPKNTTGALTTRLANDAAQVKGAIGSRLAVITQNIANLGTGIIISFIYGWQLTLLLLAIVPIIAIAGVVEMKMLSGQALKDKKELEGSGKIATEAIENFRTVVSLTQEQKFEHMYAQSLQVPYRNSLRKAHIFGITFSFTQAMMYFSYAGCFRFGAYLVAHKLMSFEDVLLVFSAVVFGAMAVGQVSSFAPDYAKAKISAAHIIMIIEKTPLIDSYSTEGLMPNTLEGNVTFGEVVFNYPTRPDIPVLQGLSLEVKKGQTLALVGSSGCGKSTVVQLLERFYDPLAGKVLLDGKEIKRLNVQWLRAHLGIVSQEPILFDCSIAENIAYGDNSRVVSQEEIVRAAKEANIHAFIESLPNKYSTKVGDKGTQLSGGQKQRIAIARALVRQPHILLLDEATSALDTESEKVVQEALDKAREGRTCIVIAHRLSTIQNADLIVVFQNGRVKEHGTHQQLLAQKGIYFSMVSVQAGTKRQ

Structure (SMILES): COc1ccccc1-c1nc(CNC(=O)c2ccccc2OC(F)F)n[nH]1 [Compound 1, 2-(difluoromethoxy)-N-[[5-(2-methoxyphenyl)-1H-1,2,4-triazol-3-yl]methyl]benzamide]
- Highest TGI (%) (A549 tumors; 75 mg/kg BID oral): 36.61%
- Highest TGI (%) (A549 tumors; 150 mg/kg BID oral): 55.43%
- Maximum TGI (%), end of the study (A549 tumors; 150 mg/kg dose): 34.64%
- Body weight (A549 tumors; 75 and 150 mg/kg): no drug effect
- Average tumor growth (A549 tumors; all doses evaluated, FIG. 13B): decreased the average tumor growth at all doses evaluated
- P-gp substrate (P-gp): not a substrate for P-gp
- Permeability ([1]; 10 μM, 4 h): highly permeable and High
- Papp at 4 h, 10 μM ([1]; PAMPA, read-out: Mean Pe): 6.76 ×10⁻⁶ cm/s
- recovery at 4 h, 10 μM ([1]; pig, not told): 85.8%
- TGI (%) (COLO205 tumors; 75 mg/kg BID oral, day 17): 20.13%
- Maximum TGI (%), end of the study (COLO205 tumors; 150 mg/kg BID oral, day 17): 35.38%
- Body weight (COLO205 tumors; 150 mg/kg group, FIG. 11E): no significant body weight change by the end of the study
- Level of Compound 1 in plasma and tumor tissue (COLO205 tumors; 75 vs 150 mg/kg, end of study, FIG. 11C): dose-dependent elevation
- cyclin B1 and phospho Histone H3 (pHH3) in tumor tissue (COLO205 tumors; markers of M phase arrest, FIG. 11D): increase
